pIC50: −log10 of the molar value.

Assay [1] is described as follows: Antagonistic activity against N-methyl-D-aspartate glutamate receptor induced cGMP in rat cerebellar slices.. It is filed as functional.
Assay [2] addresses Glutamate NMDA receptor. The assay is described as follows: Binding activity against N-methyl-D-aspartate glutamate receptor in rat brain homogenate using [3H]-glycine as the radioligand. The format is tissue-based.
Assay [3] is described as follows: Selectivity ratio as the ratio of IC50 values for [3H]CPP/[3H]-gly.
For assay [4], the target named is Glutamate NMDA receptor. The assay is described as follows: Binding activity against N-methyl-D-aspartate glutamate receptor in rat brain homogenate using [3H]CPP as the radioligand. The format is tissue-based.

Take `O=C(O)CNc1cc(C(=O)O)nc2cc(Cl)cc(Cl)c12`: the results for the pIC50 (in assay [1]; at Glutamate NMDA receptor [2]; on Glutamate NMDA receptor [4]) were 5.44, 7.00 and 3.85, respectively. The Ratio in assay [3] is 1400.

`O=C(O)c1cc(O)c2c(Cl)cc(Cl)cc2n1`: the pIC50 (usually the IC50 on a negative log10 scale, so that one unit is a factor of ten) in assay [1] is 5.46; at Glutamate NMDA receptor [4] it was 4.43. For the same compound, the Ratio in assay [3] was determined as 463.

`O=C(O)COc1cc(C(=O)O)nc2cc(Cl)cc(Cl)c12`: the pIC50 is 3.65 in assay [1], 5.05 on Glutamate NMDA receptor [2] and 3.05 on Glutamate NMDA receptor [4]. In addition, the Ratio in assay [3] was 99.

Take `O=C(O)c1cc(O)c2ccc(Cl)cc2n1` [7-CHLOROKYNURENIC ACID]: the negative logarithm of the IC50 (pIC50) in assay [1] was 5.10. Further, the Ratio in assay [3] was determined as 405.

These data come from ChEMBL document CHEMBL1125021, “4-[(Carboxymethyl)oxy]- and 4-[(carboxymethyl)amino]-5,7-dichloroquinoline-2-carboxylic acid: new antagonists of the strychnine-insensitive glycine binding site on the N-methyl-D-aspartate receptor complex” (J Med Chem, 1990).
